Literature values as cited in patent US5229370A, “Water soluble branched beta cyclodextrin steroid complex” (priority 1992, dated 1993).

Conditions: under ambient conditions; reported

Question: Which “solubility of steroid in water” value does the source give for CC(=O)[C@H]1CC[C@H]2[C@@H]3CCC4=CC(=O)CC[C@]4(C)[C@H]3CC[C@]12C [progesterone] here?
Answer: 16 µg/mL

Question: Which “solubility of steroid in water” value does the source give for C[C@]12CC[C@H]3[C@@H](CCC4=CC(=O)CC[C@@]43C)[C@@H]1CC[C@@H]2O [testosterone] here?
Answer: 40 µg/mL

Question: Which “solubility of steroid in water” value does the source give for CC(C)CCC[C@@H](C)[C@H]1CC[C@H]2[C@@H]3CC=C4C[C@@H](O)CC[C@]4(C)[C@H]3CC[C@]12C [cholesterol] here?
Answer: 2 µg/mL
